The subject of data set [1] is LPS-induced nitric oxide production in RAW264.7 cells. The data set can be described thus: LPS-induced NO production, Griess Reagent assay. The note with it: for IC50: LPS (0.5 μg/mL) 24 h; for inhibition at 10 µM: read-out: Inhibition rate±SD (%) against NO production. The data set is classed as cell-based, mouse. The procedure:
RAW264.7 cells (7 × 10^4 cells/well) were seeded into 48-well plate and used for experiments after 24 h. […] After 24 h collect cell supernatant, NO production was measured using Griess Reagent assay (Beyotime). Griess reagent were mixed at a ratio of 1:1, and reacted at room temperature for 15 min. Measurement of absorbance at […] with enzyme reader. At least three independent experiments were performed for the determination of IC50 values, which were shown as mean ± SD. All experimental data were analysed by using GraphPad Prism software, version 8.0 (GraphPad Inc.).

Data set [2] can be described thus: Cell viability assay (MTT), RAW264.7. The data set is classed as cell-based, mouse. The note with it: mouse, RAW264.7 cells, read-out: Cytotoxicity IC50 with RAW264.7. The procedure: (§1) RAW264.7 cells (1 × 10^4 cells/well) were seeded into 96-well plate and used for experiments after 24 h. Compounds (4 µM, 20 µM and 100 µM) treated cell for 24 h. Forty microliters of MTT solution (5 mg/mL, Sigma-Aldrich) was then added and incubated for an additional 4 h. After 4 h, cell culture supernatants were removed and DMSO (150 µL) was added into per well for dissolving the resulting crystals. Shaking about 1 0 ∼ 15 min and the absorbance at 492 nm was measured by a microplate reader (MQX200, Bio-Tek, Winooski, VT). At least three independent experiments were performed for the determination of IC50 values, which were shown as mean ± SD. All experimental data were analysed by using GraphPad Prism software, version 8.0 (GraphPad Inc.).

The nature of data set [3]: Cell viability assay (MTT), LO2. In kind it is cell-based. The note with it: human, LO2 cells, read-out: Cytotoxicity IC50 with LO2.
Another data set concerns LPS-induced HaCaT cells. Kind of data set: Hyperproliferation assay, LPS-stimulated HaCaT cells (MTT). In kind it is cell-based, human. The note with it: pre-treated 6 h, LPS 24 h. The procedure:
HaCaT cells were seeded in 96-well plates and cultured at 37 °C in a humidified 5% CO2 atmosphere. When the cell confluency reached 60–70%, HaCaT cells were then starved in serum-free DMEM for 12 h before stimulated by 100 ng/mL LPS for 24 h to mimic hyperproliferative psoriatic keratinocytes. The cell viability was measured by MTT method. Results are expressed as the percentage survival of cells in the cell treated group and the untreated control group (without the tested compound and LPS).

For data set [4], the target named is T1, TOPK (Homo sapiens, UniProt Q96KB5).
T1 construct: endogenous in cells
T1 sequence (Q96KB5 1-322): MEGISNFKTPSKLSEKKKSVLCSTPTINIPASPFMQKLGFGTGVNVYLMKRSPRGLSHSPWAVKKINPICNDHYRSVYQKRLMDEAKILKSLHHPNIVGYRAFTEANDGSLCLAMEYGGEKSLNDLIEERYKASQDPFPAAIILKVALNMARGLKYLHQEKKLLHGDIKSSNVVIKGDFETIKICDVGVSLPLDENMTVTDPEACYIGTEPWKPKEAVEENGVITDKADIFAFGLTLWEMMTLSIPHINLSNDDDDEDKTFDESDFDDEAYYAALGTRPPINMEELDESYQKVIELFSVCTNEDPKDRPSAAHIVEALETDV
Details: method as in PMID 17276892. The note with it: 100 µM; cited from earlier work.

Data set [5] addresses T1, TOPK. Also noted: method as in earlier work. The note with it: ref 16/17; cited from earlier work.
Data set [6] addresses T1, TOPK. Details: method as in PMID 28404919. The note with it: time- and dose-dependent, in vitro and in vivo; cited from earlier work.
The conditions of data set [7]: cited from earlier work.
Another data set deals with RAW264.7 cells. Kind of data set: Cell viability assay (MTT), RAW264.7. The data set is classed as cell-based, mouse. The note with it: 24 h, read-out: Cytotoxicity IC50 with RAW264.7. The method, then: as §1
Another data set has as its system iNOS. The data set can be described thus: Western blot of iNOS in LPS-stimulated RAW264.7 cells. In kind it is cell-based, mouse. The note with it: 2.5, 5, 10 µM, 1 h, LPS 24 h. The method, then: (§2) RAW264.7 cells were seeded into 6-well plate with 2 × 10^6 cells per well and maintained about 24 h, and then pre-treated with compound B12 (2.5, 5, 10 µM) for 1 h, co-treated with LPS (0.5 µg/mL) for 0.5 h or 24 h. Western blotting assay was performed as the method described previously. Briefly, the cells were lysed in […] RIPA cell lysis buffer (Contains PMSF and phosphatase inhibitors, Beyotime China) and incubated on ice for 30 min. Collecting supernatant by centrifugation. The same amount of protein was separated by SDS-PAGE and transferred to PVDF membrane (GE Healthcare, Amersham, UK). The blotted membrane incubated with the primary antibodies and allowed to react for an additional 16 h at 4 °C. All antibodies obtain from Cell Signalling Technology, Boston, MA. The membranes incubated with a 1:5000 dilutions of HRP-conjugated secondary antibody (Beyotime Biotech, Nantong, China) for 1 h at room temperature. Signals were visualised using ECL system (Thermo Fisher Scientific, Waltham, MA).

Another data set has as its system COX-2. Kind of data set: Western blot of COX-2 in LPS-stimulated RAW264.7 cells. The note with it: 2.5, 5, 10 µM, 1 h, LPS 24 h. In kind it is cell-based, mouse. The procedure: as §2
Data set [8] deals with T1, TOPK. Kind of data set: Cellular thermal shift assay (CETSA). In kind it is binding. The note with it: especially at 57 °C. The source says:
Based on the ligand-induced thermal stabilisation of target proteins, the cellular thermal shift assay (CETSA) assay is likely to validate drug binding, off-target effects or drug resistance in cell lines. To further detect the direct binding of compound B12 with TOPK protein, CETSA was used in this study.

Data set [9] concerns P38. The data set can be described thus: Western blot, LPS-induced p38 phosphorylation in RAW264.7. The data set is classed as cell-based, mouse. The note with it: LPS (0.5 μg/mL) 30 min. The method, then: as §2
Data set [10] relates to JNK. The data set can be described thus: Western blot, LPS-induced JNK phosphorylation in RAW264.7. In kind it is cell-based, mouse. The note with it: LPS (0.5 μg/mL) 30 min. The procedure: as §2
Another data set deals with NF-κB p65. Kind of data set: Western blot, LPS-induced NF-κB p65 translocation in RAW264.7. The data set is classed as cell-based, mouse. The note with it: LPS (0.5 μg/mL) 30 min. The procedure: as §2
The test system of a further data set is γ-H2AX. The data set can be described thus: Western blot, SUV-induced γ-H2AX in HaCaT cells. The note with it: 2.5 μM to 10 μM, 6 h before 40 KJ/m^2 SUV. The data set is classed as cell-based, human. The method, then:
(§3) HaCaT cells were seeded into 6-well plate with 2 × 10^6 cells per well. After 24 h culture and 12 h starvation, they were stimulated with SUV irradiation. The cells were irritated with 40 KJ/m^2 doses of SUV at 30 min. In order to study the effect of compound B12, the cells were starved in serum-free medium for 12 h, and then pre-treated with compound B12 (2.5, 5, 10 μM) for 6 h before SUV irradiation. Follow the same steps as above to transfer the electrophoretic band to PVDF membrane. All steps were performed in the same way as above except that the types of primary and secondary antibodies were different.

The next data set concerns STAT3. The data set can be described thus: Western blot, SUV-induced STAT3 phosphorylation in HaCaT cells. In kind it is cell-based, human. The note with it: 2.5 μM to 10 μM, 6 h before 40 KJ/m^2 SUV. The procedure: as §3
Data set [11] relates to p38. Kind of data set: Western blot, SUV-induced p38 phosphorylation in HaCaT cells. In kind it is cell-based, human. The note with it: SUV (40 kJ/m^2) 30 min. The method, then:
as §3

Data set [12] has as its system JNK. The data set can be described thus: Western blot, SUV-induced JNK phosphorylation in HaCaT cells. The data set is classed as cell-based, human. The note with it: SUV (40 kJ/m^2) 30 min. The method, then: as §3
Data set [13] concerns IMQ-induced psoriasis mouse model. The data set can be described thus: IMQ-induced psoriasis-like skin inflammation mouse model. The data set is classed as in vivo, BALB/c mice.
Excerpt: During treatment for 7 days, to score the severity of inflammation of mouse skin, an objective scoring system was developed based on the clinical psoriasis area and severity index. Erythema, scaling, and thickening were scored independently from 0 to 4 as follows: 0, none; 1, slight; 2, moderate; 3, marked; 4, very marked and weight loss. The cumulative score (erythema plus scaling plus thickening) served to indicate the severity of inflammation (scale 0 ∼ 12). On the 8th day, the mice were taken eyeball blood and back skin. One-half of the samples were immediately fixed in 4% paraformaldehyde and for haematoxylin and eosin (H&E) staining. The other samples were put in a −80 °C freezer. Before used, they were placed at room temperature for 30 min. After that, they were added 1 × PBS proportionally, homogenised and centrifuged. The supernatant was collected and used for ELISA assay and Western blot assay. […] The histological image was obtained using 3[sequence]’s Slide Converter (3[sequence], Hungary).
Data set [14] in a line: Human liver microsomes stability assay in vitro. The data set is classed as in vitro ADME. The procedure:
The livers were homogenised initially in a Tris (0.1 M)/KCl (0.1 M)/EDTA (1 mM)/butylated sodium hydroxytoluene (BHT) (0.02 mM) buffer. Add 1.5 µL control/test compound B12 working solution to 238.5 µL liver microsome working solution, gently mix. Pre-incubate at 37 °C for 5 min. Start the reaction by adding 60 µL NADPH working solution. Mix by pipetting up and down. At each time point: 0, 5, 15, 30 and 60 min, remove 30 µL of reaction mixture to 300 µL of quenching solution. Vortex vigorously for ∼1 min and centrifuge at 4000 rpm at 4 °C for 15 min. Remove 100 µL of the supernatant and mixed with 100 µL distilled water for LC-MS/MS analysis.

The test system of a further data set is LO2 cells. Kind of data set: Cell viability assay (MTT), LO2. In kind it is cell-based. The note with it: 24 h, read-out: Cytotoxicity IC50 with LO2.
The mark [15] stands for this setting: Mus musculus, compounds 10 μM, 1 h, then LPS (0.5 μg/mL) 24 h.

Where two headings read alike, the source gives them in different places.

For `COc1ccc(C(C)=O)c(O)c1` [Pae, paeonol], the “Inhibitory activity on LPS-induced NO secretion, in words” value in data set [1] (10 µM) is given as “weak potencies”. The half-inhibitory concentration (IC50) in data set [1] (Mus musculus) was over 10 µM. The inhibition at 10 µM in data set [1] (setting [15]) stood at 18.4 ± 1.84%. The half-maximal inhibitory concentration (IC50) at 24 h in [2] and in [3] was over 100 µM in each case. Also, the “Excessive proliferation of LPS-induced HaCaT cells” value in the data set on LPS-induced HaCaT cells is reported as “did not have this effect”. Also, the “Expression of TOPK” value at TOPK [4] is listed as “inhibit the expression of TOPK”. The “Affinity for TOPK (MST)” value on TOPK [5] is “confirmed the affinity of paeonol for TOPK”. In addition, the “Phosphorylation levels of p38, JNKs, MSK1 and histone H2AX” value at TOPK [6] is listed as “suppressed”.

Regarding `COc1cc(O)c(C(C)=O)cc1N` [Compound 2], the Anti-inflammatory activity entry in data set [7] (reported by Huang) is “strong anti-inflammatory activity”.

As to `COc1cc(O)c(C(C)=O)cc1[N+](=O)[O-]` [Compound 1], the Anti-inflammatory activity result in data set [7] (reported by Huang) is reported as “strong anti-inflammatory activity”.

As for `COc1ccc(C(C)=O)c(Oc2ccc(NC(=O)/C=C/c3cc(OC)c(OC)c(OC)c3)cc2)c1` [Compound 3], the Anti-inflammatory activity entry in data set [7] is recorded as “suitable anti-inflammatory activity”.

Regarding `COc1cc(O)c(C(C)=O)cc1NC(=O)Nc1cccc(C(F)(F)F)c1` [Compound B12, 1–(5-acetyl-4-hydroxy-2-methoxyphenyl)-3–(3-(trifluoromethyl)phenyl) urea], the IC50 was 2.14 µM in [1] (Mus musculus) and over 100 µM with RAW264.7 cells. In data set [1] (setting [15]), the inhibition at 10 µM stood at 95.5 ± 3.26%. The half-inhibitory concentration (IC50) at 24 h in data set [2] was over 50 µM; in [3], over 100 µM. Also, the “Expression of iNOS” value with iNOS was “inhibited by compound B12 in a dose-dependent manner”. Also, in the data set on COX-2, the “Expression of COX-2” value is reported as “inhibited by compound B12 in a dose-dependent manner”. Moreover, in the data set on LPS-induced HaCaT cells, the “Excessive proliferation of LPS-induced HaCaT cells” value is on record as “inhibited excessive proliferation of LPS-induced HaCaT cells in a dose dependent manner”. Also, the “Thermal stability of TOPK (CETSA)” value on TOPK [8] is on record as “stabilised”. In the data set with P38 [9], the P38 protein phosphorylation result was “inhibited”. Moreover, in the data set with JNK [10], the JNK protein phosphorylation result is recorded as “inhibited”. For the same molecule, the “NF-κB p65 translocation into the nucleus” value with NF-κB p65 is listed as “inhibited”. Further, the “Level of phosphorylated γ-H2AX” value in the data set on γ-H2AX is on record as “gradually decreased”. Moreover, the “Level of phosphorylated STAT3” value with STAT3 is recorded as “gradually decreased”. The “Phosphorylation of p38, SUV-induced” value with p38 [11] is recorded as “inhibited”. In the data set with JNK [12], the “Phosphorylation of JNK, SUV-induced” value is listed as “inhibited”. Also, the “Pathological reduction, H&E of skin tissue” value in data set [13] (20 mg/kg, intragastric once a day, 7 days) was “moderate pathological reduction”; in data set [13] (40 mg/kg, intragastric once a day, 7 days), “high pathological reduction”. For the same molecule, the “Expression of related proteins (p-STAT3, p-TOPK, TOPK, p-p38, p-JNKs, PCNA, p-H2AX) in mouse skin tissues” value in data set [13] (20 and 40 mg/kg, Western blot) is “decreased significantly”. Moreover, the “Experimental symptoms and PASI score” value in data set [13] (B12 20 and 40 mg/kg, Dex 20 mg/kg, intragastric once a day, 7 days) was “significantly attenuated experimental symptoms and PASI score in a dose-dependent manner”. Further, the CLhep in data set [14] (human) is 8.5 mL/min/kg. In data set [14] (human liver microsomes), the half-life was found to be 1.85 h. For the same molecule, the microsomal CLint in data set [14] (human liver microsomes) is 12.5 µL/min/mg.

In the case of “1–(5-acetyl-2-methoxyphenyl)-3–(4-methylbenzyl) urea [Compound C3]”, the IC50 in data set [1] is over 10 µM; in the data set on RAW264.7 cells, over 100 µM; in the data set with LO2 cells it was over 100 µM. Besides, the “Inhibition rate±SD (%) against NO production” value in [1] (compounds 10 μM, 1 h, then LPS (0.5 μg/mL) 24 h) was 30.23±4.56%.

The record behind these values is publication PMC8890542, “Discovery of novel paeonol-based derivatives against skin inflammation in vitro and in vivo” (Journal of Enzyme Inhibition and Medicinal Chemistry, 2022).
